Literature values in PMC4061760 (Tetrahedron, 2009).

Tested on: Plk1 PBD
Conditions: 5-mer phosphopeptide

Substance: PLHSpT [Peptide 22]
- interaction with the Plk1 PBD: specifically interacts with the Plk1 PBD with high affinity
